Source: US12059425B2, “Heterocyclic compounds and uses thereof” (Kumquat Biosciences Inc., priority 2022, dated 2024)

Assays:
Assay type in all cases: biochemical
[1] = target: T1, K-Ras G12S (Homo sapiens, UniProt P01116, G12S); assay: PPI-HTRF assay, K-Ras G12S / SOS1 interaction; conditions: read-out: PPI-HTRF-5 nM (K-Ras G12S IC50)
T1 construct: made in house; host or cells: E. coli, e.g. BL21 (DE3)
Text: (§1) This assay can be also used to assess a selective inhibition or reduction of signaling output of a mutant Ras protein relative to a wildtype, or relative to a different mutant Ras protein. For example, the equilibrium interaction of wildtype Kras or K-Ras mutant (e.g., wildtype or a mutant thereof) with SOS1 (e.g., hSOS1) can be assessed as a proxy or an indication for a subject compound's ability to bind and inhibit Ras protein. HTRF assay detects from (i) a fluorescence resonance energy transfer (FRET) donor (e.g., antiGST-Europium) that is bound to GST-tagged K-Ras mutant to (ii) a FRET acceptor (e.g., anti-6His-XL665) bound to a His-tagged hSOS1.
(§2) The assay buffer can contain ˜5 mM HEPES pH 7.4, ˜150 mM NaCl, ˜1 mM DTT, 0.05% BSA and 0.0025% (v/v) Igepal. A Ras working solution is prepared in an assay buffer containing typically a suitable amount of the protein construct (e.g., GST-tagged K-Ras mutant) and the FRET donor (e.g., antiGST-Eu(K) from Cisbio, France). A SOS1 working solution is prepared in an assay buffer containing suitable amount of the protein construct (e.g., His-hSOS1) and the FRET acceptor (e.g., anti-6His-XL665 from Cisbio, France). A suitable amount of the protein construct will depend on the range of activity or range of IC50 values being detected or under investigation. For detecting IC50 within a range of 500 nM, the protein constructs of the same range of molarity can be utilized.
(§3) A fixed volume of DMSO with or without test compound is transferred into a 384-well plate. Ras working solution is added to all wells of the test plate. SOS1 working solution is added to all wells except for those that are subsequently filled the inhibitor control solution. Upon incubation for about 10 minutes or longer, the fluorescence is measured with a M1000Pro plate reader (Tecan) using HTRF detection (excitation 337 nm, emission 1: 620 nm, emission 2: 665 nm). Compounds are tested in duplicate at different concentrations (for example, 10 μM, 2.5 μM, 0.63 μM, 0.16 μM, 0.04 μM, 0.01 μM test compound). The ratiometric data (i.e., emission 2 divided by emission 1) is used to calculate IC50 values against Ras using GraphPad Prism (GraphPad software). Following this general procedure, samples are tested with or without a subject compound disclosed herein including compounds exemplified in Table 1 to assess their abilities to inhibit a mutant K-Ras relative to another K-Ras (e.g., different mutant or wildtype). Signaling output measured in terms of IC50 values can be obtained, a ratio of IC50 against one mutant relative to another mutant can be calculated. For instance, a selective reduction of K-Ras G12D signaling output can be evidenced by a ratio greater than one. In particular, a selective reduction of K-Ras G12D signaling relative to K-Ras WT signaling is evidenced if the ratio of IC50 (against K-Ras WT) to IC50 (against K-Ras G12D) is greater than 1.

[2] = target: T2, K-Ras G12V (Homo sapiens, UniProt P01116, G12V); assay: PPI-HTRF assay, K-Ras G12V / SOS1 interaction; conditions: HTRF, K-Ras G12V; read-out: PPI-HTRF-5 nM (K-Ras G12V IC50)
T2 construct: made in house; host or cells: E. coli, e.g. BL21 (DE3)
Text: as §1, §2, §3

[3] = target: T3, K-Ras G12D (Homo sapiens, UniProt P01116, G12D); assay: PPI-HTRF assay, K-Ras G12D / SOS1 interaction; conditions: HTRF, K-Ras G12D; read-out: PPI-HTRF-5 nM (K-Ras G12D IC50)
T3 construct: made in house; host or cells: E. coli, e.g. BL21 (DE3)
Text: as §1, §2, §3

[4] = target: T4, wildtype K-Ras (Homo sapiens, UniProt P01116); assay: PPI-HTRF assay, wildtype K-Ras / SOS1 interaction; conditions: HTRF, K-Ras wt; read-out: PPI-HTRF-5 nM (K-Ras wt IC50)
T4 construct: made in house; host or cells: E. coli, e.g. BL21 (DE3)
Text: as §1, §2, §3

T4 sequence (P01116 1-188 isoform P01116-2): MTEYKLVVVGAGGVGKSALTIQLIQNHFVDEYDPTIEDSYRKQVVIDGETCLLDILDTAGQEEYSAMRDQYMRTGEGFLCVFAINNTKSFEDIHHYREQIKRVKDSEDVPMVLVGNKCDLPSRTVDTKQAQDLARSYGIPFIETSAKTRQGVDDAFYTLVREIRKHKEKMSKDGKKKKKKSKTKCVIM
T3 sequence (P01116 1-188 isoform P01116-2 G12D): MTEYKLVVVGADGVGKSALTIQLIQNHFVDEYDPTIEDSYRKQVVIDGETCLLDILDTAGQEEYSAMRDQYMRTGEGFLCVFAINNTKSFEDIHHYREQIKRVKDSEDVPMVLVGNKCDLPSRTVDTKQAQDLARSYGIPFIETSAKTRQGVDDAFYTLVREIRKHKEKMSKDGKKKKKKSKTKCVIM
T2 sequence (P01116 1-188 isoform P01116-2 G12V): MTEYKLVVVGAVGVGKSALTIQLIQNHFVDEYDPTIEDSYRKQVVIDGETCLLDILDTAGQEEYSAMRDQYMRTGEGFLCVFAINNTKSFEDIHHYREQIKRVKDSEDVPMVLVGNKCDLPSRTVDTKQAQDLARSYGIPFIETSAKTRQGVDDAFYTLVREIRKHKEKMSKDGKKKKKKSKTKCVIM
T1 sequence (P01116 1-188 isoform P01116-2 G12S): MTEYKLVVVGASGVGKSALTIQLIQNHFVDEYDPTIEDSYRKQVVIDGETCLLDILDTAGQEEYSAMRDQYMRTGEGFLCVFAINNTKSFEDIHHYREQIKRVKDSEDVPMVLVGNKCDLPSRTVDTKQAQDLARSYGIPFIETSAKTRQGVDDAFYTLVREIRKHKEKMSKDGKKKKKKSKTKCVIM

IC50 [1] | IC50 [2] | IC50 [3] | IC50 [4] | Compound
< 5 µM | < 5 µM | < 5 µM | < 5 µM | N#Cc1c(N)sc2c(F)ccc(-c3c(Cl)c4c5c(nc(OCC67CCCN6C[C@H](F)C7)nc5c3F)N3CCC(OC(F)F)CC3CO4)c12 (single isomer, unassigned) [compound 118]
< 5 µM | < 5 µM | < 5 µM | < 5 µM | N#Cc1c(N)sc2c(F)ccc(-c3c(Cl)c4c5c(nc(OC[C@@]67CCCN6C[C@H](F)C7)nc5c3F)N3C[C@H](N)C[C@H]3CO4)c12 [compound 195, 2-amino-4-((8aS,10R)-10-amino-6-chloro-4-fluoro-2-(((2R,7aS)-2-fluorotetrahydro-1H-pyrrolizin-7a(5H)-yl)methoxy)-8a,9,10,11-tetrahydro-8H-pyrrolo[2′,1′:3,4][1,4]oxazepino[5,6,7-de]quinazolin-5-yl)-7-fluorobenzo[b]thiophene-3-carbonitrile]
< 5 µM | < 5 µM | < 5 µM | < 5 µM | N#Cc1c(N)sc2c(F)ccc(-c3c(Cl)c4c5c(nc(OC[C@@]67CCCN6C[C@H](F)C7)nc5c3F)N(CC(F)F)C3CN(C=O)CC3O4)c12 (stereo partly drawn) [compound 201, 2-amino-4-(6-chloro-11-(2,2-difluoroethyl)-4-fluoro-2-(((2R,7aS)-2-fluorotetrahydro-1H-pyrrolizin-7a(5H)-yl)methoxy)-9-formyl-7a,8,9,10,10a,11-hexahydropyrrolo[3′,4′:2,3][1,4]oxazepino [5,6,7-de]quinazolin-5-yl)-7-fluorobenzo[b]thiophene-3-carbonitrile]
< 5 µM | < 5 µM | < 5 µM | < 5 µM | COCCN1c2nc(OC[C@@]34CCCN3C[C@H](F)C4)nc3c(F)c(-c4ccc(F)c5sc(N)c(C#N)c45)c(Cl)c(c23)OCC2COCC21 (stereo partly drawn) [compound 163, 2-amino-4-(6-chloro-4-fluoro-2-(((2R,7aS)-2-fluorotetrahydro-1H-pyrrolizin-7a(5H)-yl)methoxy)-12-(2-methoxyethyl)-8a,9,11a,12-tetrahydro-8H,11H-furo[3′,4′:6,7][1,5]oxazocino[4,3,2-de]quinazolin-5-yl)-7-fluorobenzo[b]thiophene-3-carbonitrile]
< 5 µM | < 5 µM | – | < 5 µM | CC(C)C1NCC12CC[C@H]1COc3c(Cl)c(-c4ccc(F)c5sc(N)c(C#N)c45)c(F)c4nc(OC[C@@]56CCCN5C[C@H](F)C6)nc(c34)N1C2 (single isomer, unassigned) [compound 130]
< 5 µM | < 5 µM | < 5 µM | < 5 µM | CN1c2nc(OC[C@@]34CCCN3C[C@H](F)C4)nc3c(F)c(-c4ccc(F)c5sc(N)c(C#N)c45)c(Cl)c(c23)OCC2COCCC21 (stereo partly drawn) [compound 198, 2-amino-4-(6-chloro-4-fluoro-2-(((2R,7aS)-2-fluorotetrahydro-1H-pyrrolizin-7a(5H)-yl)methoxy)-13-methyl-8a,9,11,12,12a,13-hexahydro-8H-pyrano[4′,3′:6,7][1,5]oxazocino[4,3,2-de]quinazolin-5-yl)-7-fluorobenzo[b]thiophene-3-carbonitrile]
< 5 µM | < 5 µM | < 5 µM | < 5 µM | CCN[C@@H]1CC[C@H]2COc3c(Cl)c(-c4ccc(F)c5sc(N)c(C#N)c45)c(F)c4nc(OC[C@@]56CCCN5C[C@H](F)C6)nc(c34)N2C1 [compound 119, 2-amino-4-((5aS,8R)-3-chloro-8-(ethylamino)-1-fluoro-12-(((2R,7aS)-2-fluorotetrahydro-1H-pyrrolizin-7a(5H)-yl)methoxy)-5,5a,6,7,8,9-hexahydropyrido[2′,1′:3,4][1,4]oxazepino [5,6,7-de]quinazolin-2-yl)-7-fluorobenzo[b]thiophene-3-carbonitrile]
< 5 µM | < 5 µM | – | < 5 µM | CC(O)C1C[C@H]2CCCN2c2nc(OC[C@@]34CCCN3C[C@H](F)C4)nc3c(F)c(-c4ccc(F)c5sc(N)c(C#N)c45)c(Cl)c(c23)O1 (single isomer, unassigned) [compound 122]
< 5 µM | < 5 µM | < 5 µM | < 5 µM | N#Cc1c(N)sc2c(F)ccc(-c3c(Cl)c4c5c(nc(OC[C@@]67CCCN6C[C@H](F)C7)nc5c3F)N3CCC(F)(F)CC3CO4)c12 (stereo partly drawn) [compound 203, 2-amino-4-(6-chloro-4,10,10-trifluoro-2-(((2R,7aS)-2-fluorotetrahydro-1H-pyrrolizin-7a(5H)-yl)methoxy)-8,8a,9,10,11,12-hexahydropyrido[2′,1′:3,4][1,4]oxazepino [5,6,7-de]quinazolin-5-yl)-7-fluorobenzo[b]thiophene-3-carbonitrile]
– | – | < 5 µM | – | CN1c2nc(OC[C@@]34CCCN3C[C@H](F)C4)nc3c(F)c(-c4ccc(F)c5sc(N)c(C#N)c45)c(Cl)c(c23)OCC2CCCC21 (stereo partly drawn) [compound 165, 2-amino-4-(6-chloro-4-fluoro-2-(((2R,7aS)-2-fluorotetrahydro-1H-pyrrolizin-7a(5H)-yl)methoxy)-12-methyl-8a,9,10,11,11a,12-hexahydro-8H-cyclopenta[6,7][1,5]oxazocino[4,3,2-de]quinazolin-5-yl)-7-fluorobenzo[b]thiophene-3-carbonitrile]
< 5 µM | < 5 µM | < 5 µM | < 5 µM | CN1c2nc(OC[C@@]34CCCN3C[C@H](F)C4)nc3c(F)c(-c4ccc(F)c5sc(N)c(C#N)c45)c(Cl)c(c23)OC2COCC21 (stereo partly drawn) [compound 166, 2-amino-4-(6-chloro-4-fluoro-2-(((2R,7aS)-2-fluorotetrahydro-1H-pyrrolizin-7a(5H)-yl)methoxy)-11-methyl-7a,8,10a,11-tetrahydro-10H-furo[3′,4′:2,3][1,4]oxazepino[5,6,7-de]quinazolin-5-yl)-7-fluorobenzo[b]thiophene-3-carbonitrile]
– | – | < 5 µM | – | CC(O)C1C[C@H]2CCCN2c2nc(OC[C@@]34CCCN3C[C@H](F)C4)nc3c(F)c(-c4ccc(F)c5sc(N)c(C#N)c45)c(Cl)c(c23)O1 (single isomer, unassigned) [compound 160]
> 5 µM | > 5 µM | > 5 µM | > 5 µM | N#Cc1c(N)sc2c(F)ccc(-c3c(Cl)c4c5c(nc(OC[C@@]67CCCN6C[C@H](F)C7)nc5c3F)N3[C@H](CO4)C[C@@H]3COC(F)F)c12 [compound 210, 2-amino-4-((8aS,10R)-6-chloro-10-((difluoromethoxy)methyl)-4-fluoro-2-(((2R,7aS)-2-fluorotetrahydro-1H-pyrrolizin-7a(5H)-yl)methoxy)-8,8a,9,10-tetrahydroazeto[2′,1′:3,4][1,4]oxazepino [5,6,7-de]quinazolin-5-yl)-7-fluorobenzo[b]thiophene-3-carbonitrile]
> 5 µM | – | < 5 µM | – | CC(C)C1NCC12CC[C@H]1COc3c(Cl)c(-c4ccc(F)c5sc(N)c(C#N)c45)c(F)c4nc(OC[C@@]56CCCN5C[C@H](F)C6)nc(c34)N1C2 (single isomer, unassigned) [compound 179]
< 5 µM | < 5 µM | – | < 5 µM | N#Cc1c(N)sc2c(F)ccc(-c3c(Cl)c4c5c(nc(OC[C@@]67CCCN6C[C@H](F)C7)nc5c3F)N3CCC[C@@H]3CC(C(F)F)O4)c12 (single isomer, unassigned) [compound 123]
